Tests used:
[1] = test system: Puccinia recondita f. Sp. Tritici; assay: Puccinia recondita f. sp. tritici / wheat / leaf disc curative (brown rust); type: in vivo; conditions: foliar, 200 ppm in the applied formulation, wheat leaf segments, curative (applied 1 day after inoculation), assessed 6 to 8 days after application, read-out: disease control compared to untreated control leaf disks
Outline: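 Curative treatment: formulated compound in water was applied 1 day post-inoculation to spore-inoculated wheat cv. Kanzler segments held on agar. Segments stayed at 19° C and 75% relative humidity (12 h photoperiod after application), and disease control relative to untreated checks was assessed 6 to 8 days later.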

[2] = test system: Glomerella lacenarium (Colletotrichum lacenarium); assay: Glomerella lacenarium (Colletotrichum lacenarium) liquid culture / cucumber / preventative (anthracnose); type: cell-based; conditions: 20 ppm in the applied formulation, liquid culture in PDB, 24° C., 3 to 4 days after application, read-out: disease control (inhibition of growth, photometric) compared to untreated control
Outline: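 At 20 ppm in the applied formulation, compounds were mixed with fungal spores in potato dextrose broth and held at 24° C. After 3–4 days, photometric growth measurement gave percent antifungal activity relative to untreated control.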

[3] = test system: Phakopsora pachyrhizi; assay: Phakopsora pachyrhizi / soybean / leaf disc preventative (Asian soybean rust); type: in vivo; conditions: foliar, 200 ppm in the applied formulation, soybean leaf disks, assessed 12 to 14 days after application, read-out: disease control compared to untreated control leaf disks
Outline: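 Soybean leaf discs on water agar were sprayed with formulated compound diluted in water, then inoculated one day later with spore suspension on the lower leaf surface. Held 24-36 h dark at 20° C., 75% RH, then 12 h light/day; percent disease control versus untreated scored 12 to 14 days after application.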

[4] = test system: Puccinia recondita f. Sp. Tritici; assay: Puccinia recondita f. sp. tritici / wheat / leaf disc preventative (brown rust); type: in vivo; conditions: foliar, 200 ppm in the applied formulation, wheat leaf segments, preventative, assessed 7 to 9 days after application, read-out: disease control compared to untreated control leaf disks
Outline: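 Wheat cv. Kanzler leaf segments on agar sprayed with formulated compound in water, inoculated with rust spores 1 day later. Incubated at 19° C, 75% rh, 12 h light/12 h dark; percent disease control versus untreated scored 7 to 9 days after application; tested at 200 ppm.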

CCC(=O)C(=O)N(Cc1ccc(-c2noc(C(F)(F)F)n2)cc1)C1CC1 [Compound 1.100, N-cyclopropyl-2-oxo-N-[[4-[5-(trifluoromethyl)-1,2,4-oxadiazol-3-yl]phenyl]methyl]butanamide]
≥ 80%: pest or weed control at 200 ppm [1] | inhibition at 20 ppm [2] | pest or weed control at 200 ppm [3] | pest or weed control at 200 ppm [4]

CCN(CC)C(=O)C(=O)N(Cc1ccc(-c2noc(C(F)(F)F)n2)cc1)OC [Compound 4.69, N,N-diethyl-N′-methoxy-N′-[[4-[5-(trifluoromethyl)-1,2,4-oxadiazol-3-yl]phenyl]methyl] oxamide]
≥ 80%: pest or weed control at 200 ppm [1] | inhibition at 20 ppm [2] | pest or weed control at 200 ppm [3] | pest or weed control at 200 ppm [4]

CCCN(Cc1ccc(-c2noc(C(F)(F)F)n2)cc1)C(=O)C(N)=O [Compound 4.88, N′-propyl-N′-[[4-[5-(trifluoromethyl)-1,2,4-oxadiazol-3-yl]phenyl]methyl] oxamide]
≥ 80%: pest or weed control at 200 ppm [1] | inhibition at 20 ppm [2] | pest or weed control at 200 ppm [3] | pest or weed control at 200 ppm [4]

CC(C)C(=O)C(=O)N(C)Cc1ccc(-c2noc(C(F)(F)F)n2)cc1 [Compound 1.95, N,3-dimethyl-2-oxo-N-[[4-[5-(trifluoromethyl)-1,2,4-oxadiazol-3-yl]phenyl]methyl]butanamide]
≥ 80%: pest or weed control at 200 ppm [1] | inhibition at 20 ppm [2] | pest or weed control at 200 ppm [3] | pest or weed control at 200 ppm [4]

C=CCN(Cc1ccc(-c2noc(C(F)(F)F)n2)cc1)C(=O)C(=O)CCC [Compound 1.17, N-allyl-2-oxo-N-[[4-[5-(trifluoromethyl)-1,2,4-oxadiazol-3-yl]phenyl]methyl]pentanamide]
≥ 80%: pest or weed control at 200 ppm [1] | inhibition at 20 ppm [2] | pest or weed control at 200 ppm [3] | pest or weed control at 200 ppm [4]

O=C(NCc1ccc(-c2noc(C(F)(F)F)n2)c(F)c1)C(=O)c1ccco1 [Compound 1.79, N-[[3-fluoro-4-[5-(trifluoromethyl)-1,2,4-oxadiazol-3-yl]phenyl]methyl]-2-(2-furyl)-2-oxo-acetamide]
≥ 80%: pest or weed control at 200 ppm [1] | inhibition at 20 ppm [2] | pest or weed control at 200 ppm [3] | pest or weed control at 200 ppm [4]

CON(C)C(=O)C(=O)N(Cc1ccc(-c2noc(C(F)(F)F)n2)cc1)C1CC1 [Compound 4.105, N′-cyclopropyl-N-methoxy-N-methyl-N′-[[4-[5-(trifluoromethyl)-1,2,4-oxadiazol-3-yl]phenyl]methyl] oxamide]
≥ 80%: pest or weed control at 200 ppm [1] | inhibition at 20 ppm [2] | pest or weed control at 200 ppm [3] | pest or weed control at 200 ppm [4]

O=C(NCc1ccc(-c2noc(C(F)(F)F)n2)cc1F)C(=O)c1cccs1 [Compound 1.39, N-[[2-fluoro-4-[5-(trifluoromethyl)-1,2,4-oxadiazol-3-yl]phenyl]methyl]-2-oxo-2-(2-thienyl)acetamide]
≥ 80%: pest or weed control at 200 ppm [1] | inhibition at 20 ppm [2] | pest or weed control at 200 ppm [3] | pest or weed control at 200 ppm [4]

CO/N=C(/C)C(=O)N(Cc1ccc(-c2noc(C(F)(F)F)n2)cc1)OC [Compound 2.11, (2Z)-N-methoxy-2-methoxyimino-N-[[4-[5-(trifluoromethyl)-1,2,4-oxadiazol-3-yl]phenyl]methyl] propanamide]
≥ 80%: pest or weed control at 200 ppm [1] | inhibition at 20 ppm [2] | pest or weed control at 200 ppm [3] | pest or weed control at 200 ppm [4]

CC(C)CC(=O)C(=O)NCc1ccc(-c2noc(C(F)(F)F)n2)c(F)c1 [Compound 1.43, N-[[3-fluoro-4-[5-(trifluoromethyl)-1,2,4-oxadiazol-3-yl]phenyl]methyl]-4-methyl-2-oxo-pentanamide]
≥ 80%: pest or weed control at 200 ppm [1] | inhibition at 20 ppm [2] | pest or weed control at 200 ppm [3] | pest or weed control at 200 ppm [4]

CCON=C(C)C(=O)N(Cc1ccc(-c2noc(C(F)(F)F)n2)cc1)OC [Compound 2.12, 2-ethoxyimino-N-methoxy-N-[[4-[5-(trifluoromethyl)-1,2,4-oxadiazol-3-yl]phenyl]methyl] propanamide]
≥ 80%: pest or weed control at 200 ppm [1] | inhibition at 20 ppm [2] | pest or weed control at 200 ppm [3] | pest or weed control at 200 ppm [4]

CCC(C)N(Cc1ccc(-c2noc(C(F)(F)F)n2)cc1)C(=O)C(C)=O (stereo not shown) [Compound 1.12, 2-oxo-N-sec-butyl-N-[[4-[5-(trifluoromethyl)-1,2,4-oxadiazol-3-yl]phenyl]methyl]propanamide]
≥ 80%: pest or weed control at 200 ppm [1] | inhibition at 20 ppm [2] | pest or weed control at 200 ppm [3] | pest or weed control at 200 ppm [4]

O=C(NCc1ccc(-c2noc(C(F)(F)F)n2)cc1)C(=O)c1ccco1 [Compound 1.82, 2-(2-furyl)-2-oxo-N-[[4-[5-(trifluoromethyl)-1,2,4-oxadiazol-3-yl]phenyl]methyl]acetamide]
≥ 80%: pest or weed control at 200 ppm [1] | inhibition at 20 ppm [2] | pest or weed control at 200 ppm [3] | pest or weed control at 200 ppm [4]

CCN(CC)C(=O)C(=O)NCc1ccc(-c2noc(C(F)(F)F)n2)cc1 [Compound 4.52, N′,N′-diethyl-N-[[4-[5-(trifluoromethyl)-1,2,4-oxadiazol-3-yl]phenyl]methyl] oxamide]
≥ 80%: pest or weed control at 200 ppm [1] | inhibition at 20 ppm [2] | pest or weed control at 200 ppm [3] | pest or weed control at 200 ppm [4]

CC(C)(C)C(=O)C(=O)NCc1ccc(-c2noc(C(F)(F)F)n2)c(F)c1F [Compound 1.49, N-[[2,3-difluoro-4-[5-(trifluoromethyl)-1,2,4-oxadiazol-3-yl]phenyl]methyl]-3,3-dimethyl-2-oxo-butanamide]
≥ 80%: pest or weed control at 200 ppm [1] | inhibition at 20 ppm [2] | pest or weed control at 200 ppm [3] | pest or weed control at 200 ppm [4]

CCN(Cc1ccc(-c2noc(C(F)(F)F)n2)cc1)C(=O)C(=O)C(C)C [Compound 1.96, N-ethyl-3-methyl-2-oxo-N-[[4-[5-(trifluoromethyl)-1,2,4-oxadiazol-3-yl]phenyl]methyl]butanamide]
≥ 80%: pest or weed control at 200 ppm [1] | inhibition at 20 ppm [2] | pest or weed control at 200 ppm [3] | pest or weed control at 200 ppm [4]

CCC(=O)C(=O)N(C)Cc1ccc(-c2noc(C(F)(F)F)n2)cc1 [Compound 1.98, N-methyl-2-oxo-N-[[4-[5-(trifluoromethyl)-1,2,4-oxadiazol-3-yl]phenyl]methyl]butanamide]
≥ 80%: pest or weed control at 200 ppm [1] | inhibition at 20 ppm [2] | pest or weed control at 200 ppm [3] | pest or weed control at 200 ppm [4]

CC(C)CC(=O)C(=O)NCc1ccc(-c2noc(C(F)(F)F)n2)cc1F [Compound 1.38, N-[[2-fluoro-4-[5-(trifluoromethyl)-1,2,4-oxadiazol-3-yl]phenyl]methyl]-4-methyl-2-oxo-pentanamide]
≥ 80%: pest or weed control at 200 ppm [1] | inhibition at 20 ppm [2] | pest or weed control at 200 ppm [3] | pest or weed control at 200 ppm [4]

CN(C(=O)C(=O)NCc1ccc(-c2noc(C(F)(F)F)n2)cc1)C1CCOC1 (stereo not shown) [Compound 4.41, N′-methyl-N′-tetrahydrofuran-3-yl-N-[[4-[5-(trifluoromethyl)-1,2,4-oxadiazol-3-yl]phenyl]methyl] oxamide]
≥ 80%: pest or weed control at 200 ppm [1] | inhibition at 20 ppm [2] | pest or weed control at 200 ppm [3] | pest or weed control at 200 ppm [4]

Source: US20180370927A1, “MICROBIOCIDAL OXADIAZOLE DERIVATIVES” (SYNGENTA PARTICIPATIONS AG, priority 2015, published 2018)
